# According to BindingDB's records for doi:10.1021/acs.jmedchem.6b01194 (University of Illinois At Chicago, 2016):
# Target: 5-hydroxytryptamine receptor 2B (Homo sapiens, UniProt P41595)
# Experiment: Agonist activity at human 5-HT2B receptor expressed in human Flp-In-293 cells assessed as induction of calcium flux incubated for 1 hr by Fluo-4 direct dye based FLIPR assay
# Sequence of 5-hydroxytryptamine receptor 2B (P41595 whole entry): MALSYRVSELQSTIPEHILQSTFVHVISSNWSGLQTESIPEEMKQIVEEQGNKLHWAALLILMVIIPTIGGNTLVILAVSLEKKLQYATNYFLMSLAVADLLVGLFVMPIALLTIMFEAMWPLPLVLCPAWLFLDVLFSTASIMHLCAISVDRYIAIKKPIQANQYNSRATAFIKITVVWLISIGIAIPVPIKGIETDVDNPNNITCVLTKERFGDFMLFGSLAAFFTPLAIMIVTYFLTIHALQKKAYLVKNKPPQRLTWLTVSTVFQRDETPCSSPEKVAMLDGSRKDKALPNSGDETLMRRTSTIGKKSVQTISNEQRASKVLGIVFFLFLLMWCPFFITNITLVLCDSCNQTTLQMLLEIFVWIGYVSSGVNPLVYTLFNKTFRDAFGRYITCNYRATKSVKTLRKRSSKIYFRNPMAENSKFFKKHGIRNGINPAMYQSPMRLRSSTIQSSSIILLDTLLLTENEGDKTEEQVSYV
compound,measurement,value
NC[C@H]1C[C@@H]1c1c(OCC2CC2)ccc2occc12,EC50,339 nM
